We go through 23 molecules from PubChem BioAssay AID248 (DTP/NCI, 2004).

Where “and” joins values, the source holds several entries; their conditions need not be identical. Equal entries are not always repeated. Inconclusive results and toxic doses are left out.

This test deals with L1210 leukemia ip in BDF1 mice, survival T/C. As to the kind of experiment: NCI In Vivo Anticancer Drug Screen. Data for tumor model L1210 Leukemia (intraperitoneal) in B6D2F1 (BDF1) mice. Particulars: endpoint: mean survival time, higher = longer survival. Summed up: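 Transplantable tumor model; survival measured in treated vs vehicle control mice. Value = treated/control.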

Setting [1] is: dose: 100.0 mg/kg/injection, schedule: Q01DX001 (ip), vehicle: saline.
[2] abbreviates: dose: 100.0 mg/kg/injection, schedule: Q04DX002 (ip), vehicle: saline.
[3] abbreviates: dose: 100.0 mg/kg/injection, schedule: Q04DX003 (ip), vehicle: saline.
Setting [4] is: dose: 200.0 mg/kg/injection, schedule: Q01DX001 (ip), vehicle: saline.
The mark [5] stands for this setting: dose: 200.0 mg/kg/injection, schedule: Q04DX002 (ip), vehicle: saline.
The mark [6] stands for this setting: dose: 200.0 mg/kg/injection, schedule: Q04DX003 (ip), vehicle: saline.
[7] abbreviates: dose: 400.0 mg/kg/injection, schedule: Q01DX001 (ip), vehicle: saline.
[8] abbreviates: dose: 400.0 mg/kg/injection, schedule: Q04DX003 (ip), vehicle: saline.
[9] abbreviates: dose: 50.0 mg/kg/injection, schedule: Q01DX009 (ip), vehicle: saline with Tween-80.
[10] abbreviates: dose: 100.0 mg/kg/injection, schedule: Q01DX009 (ip), vehicle: saline with Tween-80.
[11] abbreviates: dose: 200.0 mg/kg/injection, schedule: Q01DX009 (ip), vehicle: saline with Tween-80.
Where [12] appears, read: dose: 400.0 mg/kg/injection, schedule: Q01DX009 (ip), vehicle: saline with Tween-80.
The mark [13] stands for this setting: dose: 100.0 mg/kg/injection, schedule: Q04DX003 (ip), vehicle: Klucel (hydroxypropylcellulose) (HPC).
[14] abbreviates: dose: 200.0 mg/kg/injection, schedule: Q04DX003 (ip), vehicle: Klucel (hydroxypropylcellulose) (HPC).
The mark [15] stands for this setting: dose: 400.0 mg/kg/injection, schedule: Q04DX003 (ip), vehicle: Klucel (hydroxypropylcellulose) (HPC).
[16] abbreviates: dose: 100.0 mg/kg/injection, schedule: Q04DX003 (ip), vehicle: saline with Tween-80.
The mark [17] stands for this setting: dose: 200.0 mg/kg/injection, schedule: Q04DX003 (ip), vehicle: saline with Tween-80.
Where [18] appears, read: dose: 100.0 mg/kg/injection, schedule: Q01DX009 (ip), vehicle: Klucel (hydroxypropylcellulose) (HPC).
[19] abbreviates: dose: 200.0 mg/kg/injection, schedule: Q01DX009 (ip), vehicle: Klucel (hydroxypropylcellulose) (HPC).
Where [20] appears, read: dose: 400.0 mg/kg/injection, schedule: Q01DX009 (ip), vehicle: Klucel (hydroxypropylcellulose) (HPC).
Setting [21] is: dose: 25.0 mg/kg/injection, schedule: Q01DX009 (ip), vehicle: saline with Tween-80.

As to `CC(C)CCN`, the T/C runs as follows: under setting [1], 115 % of control; (dose: 100.0 mg/kg/injection, schedule: Q01DX009 (ip), vehicle: saline) 98 % of control and 104 % of control; under setting [2], 102 % of control and 103 % of control; under setting [3], 98 % of control; under setting [4], 112 % of control; (dose: 200.0 mg/kg/injection, schedule: Q01DX009 (ip), vehicle: saline) 107 % of control and 112 % of control. For the same molecule, the T/C runs as follows: under setting [5], 103 % of control and 108 % of control; under setting [6], 98 % of control; under setting [7], 107 % of control; (dose: 400.0 mg/kg/injection, schedule: Q01DX009 (ip), vehicle: saline) 114 % of control and 117 % of control; (dose: 400.0 mg/kg/injection, schedule: Q04DX002 (ip), vehicle: saline) 101 % of control and 102 % of control; under setting [8], 112 % of control.

In the case of `Nc1nc(N)c2c(Cl)c(CNc3ccc(C(=O)NC(CC(=O)O)CC(=O)O)cc3)ccc2n1`, the T/C reads like this: (dose: 12.5 mg/kg/injection, schedule: Q04DX003 (ip), vehicle: saline) 157 % of control; (dose: 25.0 mg/kg/injection, schedule: Q04DX003 (ip), vehicle: saline) 178 % of control; (dose: 50.0 mg/kg/injection, schedule: Q04DX003 (ip), vehicle: saline) 90 % of control.

For the molecule `O=[N+]([O-])c1ccc(CN=NCc2ccc(Cl)cc2Cl)c(Cl)c1`, the T/C runs as follows: under setting [9], 90 % of control; under setting [10], 100 % of control; under setting [11], 100 % of control; under setting [12], 95 % of control.

In the case of `CCOC(=O)c1cnc(C)nc1Nc1ccccc1I`, the T/C runs as follows: under setting [13], 106 % of control; under setting [14], 97 % of control; under setting [15], 101 % of control.

With `CCC(C)C(CN)(CCCN1CCCC1)c1cccc2ccccc12` (stereo unspecified), the T/C is 92 % of control under setting [16]; 89 % of control under setting [17]; 101 % of control (dose: 400.0 mg/kg/injection, schedule: Q04DX003 (ip), vehicle: saline with Tween-80).

As for `CN1NC(=O)C2CCCC1O2` (stereo unspecified), the T/C reads like this: under setting [1], 95 % of control; under setting [4], 105 % of control; under setting [7], 94 % of control.

Take `O=C1C(=O)c2ccccc2C=C1[N+](=O)[O-]`: the T/C (dose: 5.0 mg/kg/injection, schedule: Q01DX009 (ip), vehicle: saline) was 92 % of control; the T/C (dose: 5.0 mg/kg/injection, schedule: Q04DX003 (ip), vehicle: saline) was 108 % of control; the T/C (dose: 10.0 mg/kg/injection, schedule: Q01DX009 (ip), vehicle: saline) was 101 % of control; the T/C (dose: 10.0 mg/kg/injection, schedule: Q04DX003 (ip), vehicle: saline) is 96 % of control; the T/C (dose: 20.0 mg/kg/injection, schedule: Q01DX009 (ip), vehicle: saline) was 99 % of control; the T/C (dose: 20.0 mg/kg/injection, schedule: Q04DX003 (ip), vehicle: saline) is 93 % of control.

`C=C(C)/C=C(\C)CC(=C)C`: the T/C under setting [3] is 97 % of control, the T/C under setting [6] was 105 % of control and the T/C under setting [8] is 96 % of control.

Regarding `O=S(=O)(O)CS(=O)(=O)O.[Ag]`, the T/C reads like this: (dose: 5.0 mg/kg/injection, schedule: Q01DX001 (ip), vehicle: saline) 101 % of control; (dose: 10.0 mg/kg/injection, schedule: Q01DX001 (ip), vehicle: saline) 95 % of control; (dose: 20.0 mg/kg/injection, schedule: Q01DX001 (ip), vehicle: saline) 97 % of control; (dose: 40.0 mg/kg/injection, schedule: Q01DX001 (ip), vehicle: saline) 97 % of control.

For `CNC1C(O)C(OC2C(N)CC(N)C(OC3OC(CN)=CCC3N)C2O)OCC1(C)O` (stereo unspecified), the T/C is 90 % of control (dose: 63.5 mg/kg/injection, schedule: Q04DX002 (ip), vehicle: saline with Tween-80); 97 % of control (dose: 125.0 mg/kg/injection, schedule: Q04DX002 (ip), vehicle: saline with Tween-80); 87 % of control (dose: 250.0 mg/kg/injection, schedule: Q04DX002 (ip), vehicle: saline with Tween-80).

For the molecule `CC(=O)Nc1ccc(-n2cnc3c(Cl)ncnc32)cc1C`, the T/C (dose: 100.0 mg/kg/injection, schedule: Q01DX001 (ip), vehicle: carboxymethylcellulose (CMC)) is 87 % of control; the T/C (dose: 200.0 mg/kg/injection, schedule: Q01DX001 (ip), vehicle: carboxymethylcellulose (CMC)) is 91 % of control; the T/C (dose: 400.0 mg/kg/injection, schedule: Q01DX001 (ip), vehicle: carboxymethylcellulose (CMC)) is 91 % of control.

`OCCOc1c(Cl)c(Cl)c(Cl)c(Cl)c1Cl`: the T/C was 101 % of control under setting [9]; 94 % of control under setting [10]; 102 % of control under setting [16]; 103 % of control under setting [11]; 97 % of control under setting [17].

Take `O=C1C(Cl)(Cl)CCCC1(Cl)Cl`: the T/C reads like this: under setting [9], 98 % of control; under setting [10], 105 % of control; under setting [11], 110 % of control.

As for `C=CCC1(C(C)CCC)C(=O)NC(=S)NC1=O` (stereo unspecified), the T/C is, setting by setting: (dose: 75.0 mg/kg/injection, schedule: Q01DX001 (ip), vehicle: saline) 100 % of control; (dose: 150.0 mg/kg/injection, schedule: Q01DX001 (ip), vehicle: saline) 98 % of control; (dose: 300.0 mg/kg/injection, schedule: Q01DX001 (ip), vehicle: saline) 90 % of control.

In the case of `Cc1ccc(NC(=O)COc2ccc(Cl)cc2)c([N+](=O)[O-])c1`, the T/C reads like this: under setting [18], 101 % of control; under setting [13], 88 % of control; under setting [19], 101 % of control; under setting [14], 90 % of control; under setting [20], 91 % of control; under setting [15], 88 % of control.

Regarding `COC1=C(OC)C(=O)C(SC/C=C(\C)CCCC(C)CCCC(C)CCCC(C)C)=CC1=O` (stereo unspecified), the T/C (dose: 6.25 mg/kg/injection, schedule: Q01DX009 (ip), vehicle: saline with Tween-80) is 103 % of control; the T/C (dose: 12.5 mg/kg/injection, schedule: Q01DX009 (ip), vehicle: saline with Tween-80) was 105 % of control; the T/C under setting [21] was 100 % of control and 113 % of control; the T/C under setting [9] was 104 % of control and 122 % of control; the T/C under setting [10] was 105 % of control and 122 % of control; the T/C under setting [11] is 115 % of control and 124 % of control. In addition, the T/C under setting [12] is 115 % of control.

As to `O=C=Nc1cccc2c(N=C=O)cccc12`, under setting [10], the T/C was 91 % of control.

Consider `O=C(C(Br)C(Br)c1ccccc1)C(Br)C(Br)c1ccccc1` (stereo unspecified), for which the T/C by setting is: (dose: 100.0 mg/kg/injection, schedule: Q04DX003 (ip), vehicle: saline sonified) 101 % of control; (dose: 200.0 mg/kg/injection, schedule: Q04DX003 (ip), vehicle: saline sonified) 105 % of control; (dose: 400.0 mg/kg/injection, schedule: Q04DX003 (ip), vehicle: saline sonified) 97 % of control.

On to `Cc1c(S(=O)(=O)F)ccc(O)c1[N+](=O)[O-]`, for which the T/C by setting is: under setting [18], 104 % of control; under setting [19], 104 % of control; under setting [20], 110 % of control.

On to `Nc1scc2[nH]c3ccccc3[n+]12`, for which the T/C reads like this: under setting [2], 100 % of control; under setting [5], 104 % of control.

Consider `C1OCC2(CO1)COCOC2`, for which the T/C is, setting by setting: (dose: 50.0 mg/kg/injection, schedule: Q01DX009 (ip), vehicle: acetone) 95 % of control; (dose: 100.0 mg/kg/injection, schedule: Q01DX009 (ip), vehicle: acetone) 91 % of control; under setting [3], 95 % of control; (dose: 200.0 mg/kg/injection, schedule: Q01DX009 (ip), vehicle: acetone) 93 % of control; under setting [6], 103 % of control; under setting [8], 105 % of control.

In the case of `COc1ccc(SC(=O)Nc2cc([N+](=O)[O-])ccc2Cl)cc1`, the T/C is, setting by setting: under setting [21], 89 % of control; under setting [9], 89 % of control.

As to `C(=C\C[n+]1ccccc1)/C[n+]1ccccc1`, the T/C was 106 % of control (dose: 50.0 mg/kg/injection, schedule: Q01DX001 (ip), vehicle: saline); 112 % of control under setting [1]; 106 % of control under setting [4].
